Assay [1] addresses T1, human TLR7 (Homo sapiens, UniProt Q9NYK1).
T1 construct: host or cells: HEK-Blue cells
T1 sequence (Q9NYK1 27-1049): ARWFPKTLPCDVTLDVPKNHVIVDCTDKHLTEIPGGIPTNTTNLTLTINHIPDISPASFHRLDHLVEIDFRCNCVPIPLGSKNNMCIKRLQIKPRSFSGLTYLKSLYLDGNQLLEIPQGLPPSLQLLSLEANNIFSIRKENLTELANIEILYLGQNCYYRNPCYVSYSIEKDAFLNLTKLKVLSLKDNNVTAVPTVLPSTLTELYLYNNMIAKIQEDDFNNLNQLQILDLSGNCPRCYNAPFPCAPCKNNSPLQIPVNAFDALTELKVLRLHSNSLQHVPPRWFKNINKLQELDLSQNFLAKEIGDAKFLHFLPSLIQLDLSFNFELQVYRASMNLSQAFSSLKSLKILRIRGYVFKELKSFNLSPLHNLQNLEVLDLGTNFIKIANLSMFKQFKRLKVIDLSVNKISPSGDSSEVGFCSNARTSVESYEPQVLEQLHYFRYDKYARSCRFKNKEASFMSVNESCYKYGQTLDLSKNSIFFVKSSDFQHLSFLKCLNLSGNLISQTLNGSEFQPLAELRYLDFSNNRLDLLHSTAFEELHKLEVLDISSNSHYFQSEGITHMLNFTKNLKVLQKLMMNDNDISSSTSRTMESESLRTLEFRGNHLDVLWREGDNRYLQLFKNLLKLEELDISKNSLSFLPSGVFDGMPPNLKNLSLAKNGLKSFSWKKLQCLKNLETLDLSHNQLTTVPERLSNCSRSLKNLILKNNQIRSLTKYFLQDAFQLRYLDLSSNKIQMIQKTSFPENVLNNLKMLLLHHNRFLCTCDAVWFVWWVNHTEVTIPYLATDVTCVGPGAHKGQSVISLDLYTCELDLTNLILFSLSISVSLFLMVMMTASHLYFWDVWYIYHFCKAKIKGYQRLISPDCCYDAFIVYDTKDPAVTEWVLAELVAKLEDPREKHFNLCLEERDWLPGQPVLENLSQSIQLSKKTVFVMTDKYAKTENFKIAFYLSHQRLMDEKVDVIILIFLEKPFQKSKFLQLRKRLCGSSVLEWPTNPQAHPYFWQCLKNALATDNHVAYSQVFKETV
The assay is described as follows: TLR7 inhibition reporter assay (HEK-Blue SEAP). It is filed as cell-based. Conditions: HEK-Blue cells overexpressing human TLR7, gardiquimod 7.5 μM, 22 hour incubation. The method, boiled down:
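Cells (15000/well for TLR7, 20,000 for TLR8) were treated with compounds over 0.05 nM-50 μM final. After 22 h at 37° C, 5% CO2, SEAP was measured with HEK-Blue Detection reagent; percent inhibition was taken as reduction of agonist-plus-DMSO signal relative to a known inhibitor.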

Assay [2] deals with T2, human TLR9 (Homo sapiens, UniProt Q9NR96).
T2 construct: host or cells: HEK-Blue cells
T2 sequence (Q9NR96 26-1032): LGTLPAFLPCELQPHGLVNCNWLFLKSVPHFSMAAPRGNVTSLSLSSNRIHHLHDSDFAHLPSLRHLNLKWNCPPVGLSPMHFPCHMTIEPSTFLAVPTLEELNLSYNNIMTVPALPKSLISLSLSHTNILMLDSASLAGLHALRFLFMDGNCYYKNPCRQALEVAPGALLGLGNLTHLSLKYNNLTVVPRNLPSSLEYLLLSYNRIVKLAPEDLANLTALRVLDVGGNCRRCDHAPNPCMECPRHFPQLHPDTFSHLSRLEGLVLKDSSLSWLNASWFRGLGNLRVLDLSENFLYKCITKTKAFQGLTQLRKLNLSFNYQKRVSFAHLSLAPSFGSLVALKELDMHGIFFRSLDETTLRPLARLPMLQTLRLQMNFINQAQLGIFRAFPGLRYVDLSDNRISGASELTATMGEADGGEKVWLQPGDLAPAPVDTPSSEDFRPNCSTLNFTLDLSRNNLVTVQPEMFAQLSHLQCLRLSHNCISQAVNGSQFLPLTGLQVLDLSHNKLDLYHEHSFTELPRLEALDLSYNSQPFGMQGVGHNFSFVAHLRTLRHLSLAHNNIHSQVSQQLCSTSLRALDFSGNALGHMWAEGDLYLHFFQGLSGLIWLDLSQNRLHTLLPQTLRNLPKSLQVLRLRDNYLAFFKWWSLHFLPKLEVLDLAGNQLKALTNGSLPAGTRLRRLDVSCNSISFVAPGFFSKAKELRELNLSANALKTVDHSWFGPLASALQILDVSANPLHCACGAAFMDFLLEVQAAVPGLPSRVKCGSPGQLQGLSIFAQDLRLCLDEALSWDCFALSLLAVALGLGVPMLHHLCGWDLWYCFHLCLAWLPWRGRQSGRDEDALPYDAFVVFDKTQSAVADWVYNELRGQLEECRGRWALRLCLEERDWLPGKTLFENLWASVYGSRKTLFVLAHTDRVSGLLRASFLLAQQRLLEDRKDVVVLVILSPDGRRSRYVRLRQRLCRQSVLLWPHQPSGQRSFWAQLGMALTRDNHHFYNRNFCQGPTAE
The assay can be described thus: TLR9 inhibition reporter assay (HEK-Blue SEAP). It is filed as cell-based. Conditions: HEK-Blue cells overexpressing human TLR9, ODN2006 5 nM, 22 hour incubation. The method, boiled down: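 Human TLR7/8/9 HEK-Blue reporter lines; dose range 0.05 nM–50 μM; 30 min RT preincubation; stimulus gardiquimod 7.5 μM / R848 15.9 μM / ODN2006 5 nM respectively; 22 h, 37 °C; SEAP detected colorimetrically.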
For orientation: A reporter such as luciferase makes a cellular process visible.

By pIC50 is commonly meant the negative decadic logarithm of the IC50, by convention in mol/L. A low value points to a high IC50.

pIC50: −log10 of the molar value.

Turning to `CCc1cc2c(cc1-c1cc(OC)c3ncnn3c1)[nH]c(=O)n2[C@@H]1CCCN(CC)C1` [Example 171, (R)-6-ethyl-1-(1-ethylpiperidin-3-yl)-5-(8-methoxy-[1,2,4]triazolo[1,5-a]pyridin-6-yl)-1,3-dihydro-2H-benzo[d]imidazol-2-one], the pIC50 in assay [1] was 8.34; in assay [2], 4.97.

The record behind these values is US12187723B2 (BRISTOL-MYERS SQUIBB COMPANY, priority 2019, dated 2025).
